Measurements reported in patent publication US10501443B2, “Pyridone compound as c-met inhibitor” (FUJIAN COSUNTER PHARMACEUTICAL CO., LTD., priority 2016, dated 2019).
pIC50: −log10 of the molar value.

Key:
[1] = t1/2 of liver particle metabolism, rat; assay type: in vitro ADME; settings: liver particle (liver microsomes)
[2] = system: human liver cancer MHCC97H cell xenograft; assay: Pharmacodynamics assay of MHCC97H liver cancer cell subcutaneous xenograft tumor model; assay type: in vivo, BALB/c nude mice; settings: for Tumor volume (24th day): 24th day after administration, average ± SEM; for T/C / TGI: based on 24th day tumor volume
Protocol: Assay 3: Pharmacodynamics Assay of MHCC97H Liver Cancer Cell Subcutaneous Xanograft Tumor Model
MHCC97H cells were cultured in a single layer in-vitro. The culturing condition was RPMI1640 medium supplemented with 10% heat-inactivated fetal bovine serum, 1% penicillin-streptomycin double antibody under 37° C., 5% carbon dioxide. Digestion and passage treatment with trypsin-EDTA was done twice a week. When the cells are in the exponential growing phase, the cells were collected, counted and inoculated.
BALB/c nude mice, male. 6-8 weeks old, weighting 18-22 g.
0.2 mL of a cell suspension containing 5×10^6 MHCC97H was subcutaneously inoculated into the right back of each mouse. Drugs were administrated by group after the average tumor volume reached approximately 172 mm^3.
Aim of the assay: investigation of whether the tumor growth was inhibited, delayed or cured. The diameters of the tumor was measured twice a week using vernier calipers. The formula for calculating the tumor volume is V=0.5a×b2, and a and b represent the long and short diameters of the tumor respectively. The antitumor effect (TGI) of the compounds was evaluated by T-C (days) and T/C (%).

[3] = t1/2 of liver particle metabolism, mice; assay type: in vitro ADME; settings: mouse, liver particle (liver microsomes)
[4] = t1/2 of liver particle metabolism, human; assay type: in vitro ADME; settings: liver particle (liver microsomes)
[5] = target: T1, c-MET enzyme (Homo sapiens, UniProt P08581); assay: Binding activity of c-MET enzyme assay (LanthaScreen Eu Kinase Binding Assay); settings: cMET 5 nM, Tracer 236 30 nM, 60 mins at 4° C.
T1 construct: His (6xHis); purchased invitrogen PV3143
Protocol: Assay 1: Binding Activity of c-MET Enzyme Assay
(§1) Reagents and Consumables:
Eu-Anti-His AB (MAb Anti 6HIS-K)
The binding of tracer agent and antibody and kinase leaded to high FRET standard, while using kinase inhibitor instead of tracer agent would lead to loss of FRET.
1) The antibody Eu-Anti-His AB, enzyme cMET, tracer agent Tracer236 were diluted.
Double duplicate wells were set and each of them 75 nL.

[6] = system: MHCC97H cells; assay: Inhibitory effect assay on proliferation (CellTiter-Glo); assay type: cell-based; settings: Homo sapiens, 72 h, MHCC97-H, 3 days incubation, read-out: MHCC97H cell IC50
Text: Assay 2: Inhibitory Effect Assay on Proliferation
as §1
1) Cell culture: DMEM cell medium, fetal bovine serum, DPBS
3) Detection reagent: live cell detection kit CellTiter-Glo
4) Other major consumables and reagents: compound dilution plate, intermediate plate, test plate, DMSO
The amount of ATP directly reflects the number of cells and the state of the cells, thus the number of living cells could be directly detected by quantitatively measuring ATP. The live cell assay kit contains luciferase and its substrate. With the presence of ATP, a stable optical signal would be emitted by the luciferase catalyzed substrate. Thus the amount of ATP in the cell could be determined by detecting the intensity of the signal. The light signal was proportional to the amount of ATP in the cell, while the ATP was positively correlated with the number of living cells, so that the proliferation in the cell could be detected. The assay plate used was analyzed by Envision from PE Corporation.
1. Preparation of the Cell Plates
MHCC97-H cells were seeded separately into 384-well plates, each of the well contains 500 cells. The cell plates were placed and incubated in a carbon dioxide incubator overnight.
2. Preparation of the compound.
Echo was used for 4-time dilution and 9 concentration was prepared, ready for double duplicate wells assay.
3. Compound Treatment of Cells
The compounds were transferred to cell plates at a starting concentration of 10 μM. The cell plates were incubated in a carbon dioxide incubator for 3 days.
The […] reagent was added into the cell plates and the plate was incubated at room temperature for 10 mins to stabilize the luminescence signal. PerkinElmer Envision multi-label analyzer was used for readings.

[7] = system: MHCC97H cell; settings: read-out: MHCC97H cell IC50; prior art section; cited from earlier work
[8] = in words, prior art section; cited from earlier work

T1 sequence (P08581 956-1390 limits assumed): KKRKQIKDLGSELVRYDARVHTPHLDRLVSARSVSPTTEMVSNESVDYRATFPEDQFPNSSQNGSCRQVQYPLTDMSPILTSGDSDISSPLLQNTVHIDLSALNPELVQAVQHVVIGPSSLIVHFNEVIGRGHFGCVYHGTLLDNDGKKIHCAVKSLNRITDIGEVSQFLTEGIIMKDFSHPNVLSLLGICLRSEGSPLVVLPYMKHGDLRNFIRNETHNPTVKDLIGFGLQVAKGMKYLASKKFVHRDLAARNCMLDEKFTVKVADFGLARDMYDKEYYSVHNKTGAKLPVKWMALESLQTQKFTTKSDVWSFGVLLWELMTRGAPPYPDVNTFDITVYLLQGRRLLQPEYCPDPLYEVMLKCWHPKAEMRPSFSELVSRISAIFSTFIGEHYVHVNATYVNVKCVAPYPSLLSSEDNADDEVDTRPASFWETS

SMILES	pIC50 [5]	pIC50 [6]	other results
CC(c1cccc(-c2ncc(OCC3CCN(C)CC3)cn2)c1)n1cc(-c2cc(C#N)ccn2)cc(F)c1=O (single isomer, unassigned) [Embodiment 1-2]			half-life [1]: 36.5 min; Tumor volume (24th day) [2]: 153 ± 12 mm^3; T/C [2]: 7.4%; TGI [2]: 101.0%; half-life [3]: 49.1 min; half-life [4]: 62.1 min
Cc1cc(-c2cc(F)c(=O)n([C@H](C)c3cccc(-c4ncc(OCC5CCN(C)CC5)cn4)c3)c2)on1 (single isomer, unassigned) [Embodiment 8-2]	8.42		Tumor volume (24th day) [2]: 161 ± 6 mm^3; T/C [2]: 7.8%; TGI [2]: 100.6%
Cc1cc(-c2cc(F)c(=O)n(C(C)c3cccc(-c4ncc(OCC5CCN(C)CC5)cn4)c3)c2)sn1 (centres unmarked) [Embodiment 2-2]	8.03	7.86	
Cc1cc(-c2ccc(=O)n([C@H](C)c3cccc(-c4ncc(OCC5CCN(C)CC5)cn4)c3)c2)sn1 [Embodiment 3-2]		7.72	
CN1CCC(COc2cnc(-c3cccc(Cn4cc(-c5cc(C#N)ccc5F)ccc4=O)c3)nc2)CC1 [Embodiment 4]	8.21	7.14	
Cc1cc(-c2cc(F)c(=O)n(Cc3cccc(-c4ncc(OCC5CCN(C)CC5)cn4)c3)c2)sn1 [Embodiment 5]	8.54	7.23	
CN1CCC(COc2cnc(-c3cccc(Cn4cc(-c5cc(C#N)ccn5)ccc4=O)c3)nc2)CC1 [Embodiment 6]	8.36	7.48	
CN1CCC(COc2cnc(-c3cccc(Cn4cc(-c5cc(C#N)ccn5)cc(F)c4=O)c3)nc2)CC1 [Embodiment 7]	7.81	7.65	
CN1CCC(COc2cnc(-c3cccc(Cn4cc(-c5cnn(C)c5)ccc4=O)c3)nc2)CC1 [Embodiment 10]	7.16	6.78	
Cc1cc(-c2ccc(=O)n(Cc3cccc(-c4ncc(OCC5CCN(C)CC5)cn4)c3)c2)sn1 [Embodiment 11]	8.30	7.03	
Cc1cc(-c2ccc(=O)n(Cc3cccc(-c4ncc(OCC5CCN(C)CC5)cn4)c3)c2)on1 [Embodiment 12]		7.29	
CN1CCC(COc2cnc(-c3cccc(Cn4nc(-c5cccc(C#N)c5)ccc4=O)c3)nc2)CC1 [Tepotinib, reference compound]			Tumor volume (24th day) [2]: 255 ± 5 mm^3; T/C [2]: 12.4%; TGI [2]: 95.6%; pIC50 [7]: 8.21; clearance rate in vivo [8]: high clearance rate in vivo; metabolic stability [8]: low metabolic stability
